# Data from patent US10377747B2, “2-arylamino pyridine, pyrimidine or triazine derivatives, preparation method and use thereof” (Wuxi Shuangliang Biotechnology Co., Ltd., priority 2015, dated 2019).
# How the values were obtained:
# [1] = tested on: A431 (human epidermal cancer cells, EGFR wild type); test: Tumor cell proliferation and growth inhibition analysis (Cell Titer-Glo, 72 h), A431; assay type: cell-based; conditions: A-431, 72 h exposure
# Description: (§1) […] cell proliferation assay is described as follows.
# (§2) Tumor cell proliferation and growth inhibition analysis: H1975 (non-small-cell lung cancer cells. EGFR L858K/T790M) and A431 (human epidermal cancer cells, EGFR wild type) cells were commercially available from the ATCC cell bank. […] The growth medium for A431 cells was DMEM (GIBCO, 11995-065), 10% fetal bovine serum. The influence exerted by the compounds on the proliferation activity of tumor cells was detected by Cell Titer-Glo assay. Tumor cells were exposed to the treatment conditions for 72 h, and the cell density used in each experiment for each cell line was adjusted according to the 72 h cell growth curve. 10 concentration gradients and three-fold dilutions (0.5 nM-10 μM) were set for compounds to be tested, and 3 parallel controls were used for each concentration value.
# (§3) Trypsin was used for digesting cells in the logrithmic growth phase to prepare cell suspension, which was counted by a Roche counter and appropriately diluted with complete medium to a final cell concentration of 1˜2×10^3 cell/mL. 384-well plates were seeded with cells, and 22.6 μL were seeded for each well. 3 parallels were set. The plates were incubated in an incubator with 5% CO2 at 37° C. overnight. The compounds were dissolved in DMSO to prepare […] mother liquor. […] 2 μL of compound solution was added into 18 μL of culture medium, and fully mixed. Then 2 μL of mixed solution of compound and culture medium was added into 18 μL of culture medium, and fully mixed. 2.4 μL of mixtures were added into a 384-well plates. […] After cultivation for 72 h, 24 μL of Cell Titer-Glo reagent was added. The contents were mixed on an orbital shaker for 2 min to induce cell lysis. The 384-well plates were incubated at room temperature for 10 min to stabilize the […] signal value. Data was read by Infinite® M1000 PRO (TECAN), and calculated with GraphPad Prism version 5.0. GI50 value was obtained by adjustment using a non-linear regression model of dose response curves.
# [2] = tested on: H1975 (non-small-cell lung cancer cells. EGFR L858K/T790M); test: Tumor cell proliferation and growth inhibition analysis (Cell Titer-Glo, 72 h), H1975; assay type: cell-based; conditions: Homo sapiens, NCI-H1975; H1975 cells, 72 h exposure, Cell Titer-Glo; read-out: H1975 GI50
# Description: as §1, §2, §3
Compound,GI50 [1],GI50 [2]
"C=CC(=O)Nc1cc(Nc2ncnc(-n3cnc4ccccc43)n2)c(OC)cc1N(C)CCN(C)C [Example 39, N-(5-((4-(1H-benzo[d]imidazol-1-yl)-1,3,5-triazin-2-yl)amino)-2-((2-(dimethylamino)ethyl)(methyl)amino)-4-methoxyphenyl)acrylamide]",15.2 nM,21.2 nM
"C=CC(=O)Nc1cc(Nc2cc(-c3nn(C)c4ccsc34)ccn2)c(OC)cc1N(C)CCN(C)C [Example 41, N-(2-((2-(dimethylamino)ethylmethyl)amino)-4-methoxy-5-((4-(1-methyl-1H-thieno[3,2-c]pyrazol-3-yl)pyridin-2-yl)amino)phenyl)acrylamide]",~800 nM,~36.5 nM
"C=CC(=O)Nc1cc(Nc2cc(-c3nn(C)c4cccnc34)ccn2)c(OC)cc1N(C)CCN(C)C [Example 42, N-(2-((2-(dimethylamino)ethyl)(methyl)amino)-4-methoxy-5-((4-(1-methyl-1H-pyrazolo[4,3-b]pyridin-3-yl)pyridin-2-yl)amino)phenyl)acrylamide]",264 nM,16.3 nM
"C=CC(=O)Nc1cc(Nc2cc(-c3cnc4ccccn34)ccn2)c(OC)cc1N(C)CCN(C)C [Example 44, N-(2-((2-(dimethylamino)ethyl)(methyl)amino)-5-((4-(imidazo[1,2-a]pyridin-3-yl)pyridin-2-yl)amino)-4-methoxyphenyl)acrylamide]",638 nM,104 nM

# Next, values leading:
GI50 [1],GI50 [2],Compound
198 nM,28.9 nM,"C=CC(=O)Nc1cc(Nc2cc(-c3cn(C)c4ncccc34)ccn2)c(OC)cc1N(C)CCN(C)C [Example 40, N-(2-((2-(dimethylamino)ethyl)(methyl)amino)-4-methoxy-5-((4-(1-methyl-1H-pyrrolo[2,3-b]pyridin-3-yl)pyridin-2-yl)amino)phenyl)acrylamide]"
267 nM,19.1 nM,"C=CC(=O)Nc1cc(Nc2cc(-c3cnn4cccnc34)ccn2)c(OC)cc1N(C)CCN(C)C [Example 43, N-(2-((2-(dimethylamino)ethyl)(methyl)amino)-4-methoxy-5-((4-(pyrazolo[1,5-a]pyrimidin-3-yl)pyridin-2-yl)amino)phenyl)acrylamide]"
798 nM,7.6 nM,"C=CC(=O)Nc1cc(Nc2cc(-n3nc(C)c4ccccc43)ccn2)c(OC)cc1N(C)CCN(C)C [Example 45, N-(2-((2-(dimethylamino)ethyl)(methyl)amino)-4-methoxy-5-((4-(3-methyl-1H-indazol-1-yl)pyridin-2-yl)amino)phenyl)acrylamide]"
